Experiments:
[1] = test system: cardiac tissue model (hiPSC-derived cardiomyocytes co-cultured with vascular-like network); assay: Multielectrode array (MEA) field potential recording: FPD, beating frequency, Na+ spike amplitude; format: cell-based, human; conditions: for signs of cardio activity or toxicity: negative controls, up to 30 µM; for signs of cardio activity or toxicity / effect on FPD (in words): MEA; for effect on FPD (in words): acute cumulative exposure
Description: Hydrophobic compounds were solubilized in DMSO as 10 mM stocks. The water-soluble compounds were solubilized in distilled water as 1 mM stocks.
Extracellular field potentials were recorded using a Multiwell-MEA-System (Multi Channel Systems) with a 20 kHz sampling frequency on days 8–9 after cardiomyocyte seeding. The temperature was set at 37 °C and the cells were supplied with 5% CO2 during the measurements. Two-minute recordings were obtained as spontaneous baseline beating, after which the cardiac tissue models were exposed to a ½ logarithmic cumulative concentration series spanning from […] of the test compounds. With 24-well plates four replicate wells and with 96-well plates eight replicate wells were used for each compound. The wash-in period between administration of the test compounds and 2-min recording was 8 min. The field potentials were recorded with Multiwell-Screen software (Multi Channel Systems) and analysed with Multiwell-Analyzer software (Multi Channel Systems). The data from the electrodes showing clear beating patterns, sodium spike voltage change over 70 µV, and a detectable T-wave were used for the analyses. Data obtained from the electrodes of one well were averaged. In the analyses, each well was treated as an individual and (the ratio of) test compound-induced changes were calculated against the recorded baseline from the same well. The data was normalized only against the baseline values, not against the vehicle control. All the field potential durations (FPD) were corrected against the changes in beating frequency using the Fridericia formula cFPD=FPD/RR3 , where RR is the RR interval.
For each compound, we analysed the effects on FPD, beat rate and amplitude. We selected one MEA parameter based on their mechanism of action. FPD, that corresponds to the QT interval[59], was selected for compounds that are known to affect the QT time e.g., by targeting hERG or Ca^2+ channels. Beat rate was selected for compounds that target adrenergic receptors.
For the electrophysiology measurements, the chosen sample size was either 4 when using 24-well MEA plates with 12 electrodes per well and 8 when using 96-well MEA plates with 3 electrodes per well. The reported n stands for the number of wells (cardiac tissue models) per repetition of the study. Each test was repeated 3 times using 4–8 parallels in each concentration. Excel (Microsoft) was used for to calculate the p-values using Student’s two-tailed t-test. EC50 and IC50 values were calculated using non-linear fit four-parameters logistic equation Prism version 5.0. (GraphPad). The baseline values were used as Emin.

[2] = free plasma concentration from the literature; cited from earlier work
calcium channels = test system: calcium channels; set-up: method as in PMID 17078945; conditions: cited from earlier work
sodium channels = test system: sodium channels; set-up: method as in PMID 10069689; conditions: canine atrial myocytes; cited from earlier work
[3] = set-up: method as in PMID 6599419; conditions: humans; cited from earlier work
QT interval [4] = conditions: cited from earlier work
QT interval [5] = conditions: cited from earlier work; remark: listed apart in the source
[6] = test system: hiPSC-derived cardiomyocytes; set-up: method as in PMID 28456566; conditions: cited from earlier work

With `CC(C)Cc1ccc(C(C)C(=O)O)cc1` (stereo not drawn) [Ibuprofen] the “signs of cardio activity or toxicity” value [1] was “None”.
In the case of `NCCc1ccc(O)c(O)c1` [Dopamine], the Therapeutic concentration [2] is given as 300 (20% increase) nM.
In the case of `CCN(CC)CC(=O)Nc1c(C)cccc1C` [Lidocaine], the Therapeutic concentration [2] is listed as 2500[29] nM.
For `CC(C)(C)c1ccc(C(O)CCCN2CCC(C(O)(c3ccccc3)c3ccccc3)CC2)cc1` (stereo not drawn) [Terfenadine], the “effect on FPD (in words)” value [1] is given as “FPD shortening”, the “increase in FPD before the shortening of FPD initiated” value ([1]; non-significant) is given as 10% and the Therapeutic concentration [2] is given as 300[21] nM. The IC50 (calcium channels) was 185 nM and the IC50 (sodium channels) was 930 nM.
In the case of `CN(CCOc1ccc(NS(C)(=O)=O)cc1)CCc1ccc(NS(C)(=O)=O)cc1` [Dofetilide], the Therapeutic concentration [2] is listed as 2[60] nM.
For `COc1ccc(CCN2CCC(Nc3nc4ccccc4n3Cc3ccc(F)cc3)CC2)cc1` [Astemizole], the Therapeutic concentration [2] is listed as 8[21] nM.
For `C[C@@H]1CC(=O)NN=C1c1ccc(NN=C(C#N)C#N)cc1` [Levosimendan], the Therapeutic concentration [2] is given as 129[21] nM.
In the case of `CC(CC(c1ccccc1)c1ccccc1)NC(C)(C)C` (stereo not drawn) [Terodiline], the EC50 ([1]; Homo sapiens, Cardiomyocyte, as rounded in the discussion, read-out: amplitude EC50 concentration) is given as 2600 nM, the “effect on FPD (in words)” value [1] is given as “did not detect the expected FPD prolongation” and the Therapeutic concentration [2] is given as 1800[60] nM. For the same compound, the toxic plasma concentration [3] was 2.1 µM.
In the case of `COC(=O)C1=C(C)NC(C)=C(C(=O)OC(C)C)C1c1cccc2nonc12` (stereo not drawn) [Isradipine], the Therapeutic concentration [2] is listed as 80[61] nM.
For `COc1cc2nc(N(C)CCCNC(=O)C3CCCO3)nc(N)c2cc1OC` (stereo not drawn) [Alfuzosin], the “increase in FPD” value ([1]; at 300 nM, statistically significant) is listed as 20%, the Therapeutic concentration [2] is listed as 56[21] nM and the “QT effect in patients” value (QT interval [4]; at high doses (100 nM)) is listed as “mild QT increase”. For the same compound, the “concentration that significantly prolongs the QT interval in vitro” value (QT interval [5]) was 300 nM.
In the case of `O=c1[nH]c2ccccc2n1C1CCN(CCCC(c2ccc(F)cc2)c2ccc(F)cc2)CC1` [Pimozide], the Therapeutic concentration [2] is given as 3.7[61] nM.
For `COc1c(N2C[C@@H]3CCCN[C@@H]3C2)c(F)cc2c(=O)c(C(=O)O)cn(C3CC3)c12` [Moxifloxasin], the Therapeutic concentration [2] is given as 5600[60] nM.
In the case of `COc1cc(N)c(Cl)cc1C(=O)NC1CCN(CCCOc2ccc(F)cc2)CC1OC` (stereo not drawn) [Cisapride], the Therapeutic concentration [2] is given as 2.5[29] nM.
For `Cc1ccc(O)c([C@H](CCN(C(C)C)C(C)C)c2ccccc2)c1` [Tolterodine], the Therapeutic concentration [2] is given as 5 nM, the “QT interval in clinical use” value (QT interval [4]) is given as “does not prolong the QT interval” and the “in vivo concentration corresponding to the QT-prolonging concentration in vitro” value (QT interval [5]; very high concentration in vitro) is given as 340 nM.
In the case of `CC(C)NCC(O)c1ccc(NS(C)(=O)=O)cc1` (stereo not drawn) [Sotalol], the Therapeutic concentration [2] is given as 13,000[60] nM.
For `CCCCCCc1ccc(O)cc1O` [Hexylresorcinol], the “signs of cardio activity or toxicity” value [1] was “None”.
In the case of `COc1ccccc1OCC(O)CN1CCN(CC(=O)Nc2c(C)cccc2C)CC1` (stereo not drawn) [Ranolazine], the Therapeutic concentration [2] is given as 6010[21] nM.
In the case of `N=C(N)c1ccc(OCCCCCOc2ccc(C(=N)N)cc2)cc1` [Pentamidine], the “effect on FPD (in words)” value [1] is listed as “could not detect any significant FPD prolongation” and the Therapeutic concentration [2] is listed as 190[61] nM.
For `CC(C)NCC(O)COc1cccc2ccccc12` (stereo not drawn) [Propranolol], the Therapeutic concentration [2] is given as 1095[64] nM.
In the case of `CNC[C@H](O)c1ccc(O)c(O)c1` [Epinephrine], the Therapeutic concentration [2] is listed as 2.64[62] nM.
In the case of `C=C[C@H]1C[N@@]2CC[C@H]1C[C@@H]2[C@@H](O)c1ccnc2ccc(OC)cc12` [Quinidine], the Therapeutic concentration [2] is given as 3240[60] nM.
For `CC(=O)Oc1ccccc1C(=O)O` [Acetyl salicylic acid], the “signs of cardio activity or toxicity” value [1] was “None”.
For `COC(=O)C1=C(C)NC(C)=C(C(=O)OC)C1c1ccccc1[N+](=O)[O-]` [Nifedipine], the Therapeutic concentration [2] is given as 190[60] nM.
For `CC(C)NCC(O)c1ccc(O)c(O)c1` (stereo not drawn) [Isoprenaline], the Therapeutic concentration [2] is given as 0.84[63] nM.
For `O=C(CCCN1CCC(O)(c2ccc(Cl)cc2)CC1)c1ccc(F)cc1` [Haloperidol], the Therapeutic concentration [2] is given as 45[60] nM.
In the case of `C[C@H]1O[C@@H](O[C@H]2[C@@H](O)C[C@H](O[C@H]3[C@@H](O)C[C@H](O[C@H]4CC[C@@]5(C)[C@H](CC[C@@H]6[C@@H]5C[C@@H](O)[C@]5(C)[C@@H](C7=CC(=O)OC7)CC[C@]65O)C4)O[C@@H]3C)O[C@@H]2C)C[C@H](O)[C@@H]1O` [Digoxin], the Therapeutic concentration [2] is listed as 2.8[61] nM.
For `COc1cccc2c1C(=O)c1c(O)c3c(c(O)c1C2=O)C[C@@](O)(C(=O)CO)C[C@@H]3O[C@H]1C[C@H](N)[C@H](O)[C@H](C)O1` [Doxorubicin], the “changes to FPD, BPM or amplitude” value ([1]; short-term experiments, exposures up to 2 h) is given as “could not detect any”, the “apoptosis of hiPSC-derived cardiomyocytes” value ([6]; after two days of exposure) is given as “increase” and the “effect on FPD or beat rate” value ([6]; short exposures) is given as “not to affect”.

Source: PMC9355975, “Functional human cell-based vascularised cardiac tissue model for biomedical research and testing” (Scientific Reports, 2022)
